# Patent US20080260850A1, “Delivery System For Bioactive Agents on the Basis of a Polymeric Drug Carrier Comprising an Amphiphilic Block Polymer and a Polylacticacid Derivative” (SAMYANG CORPORATION, priority 2004, published 2008)
# What was measured:
# [1] = system: MES-SA/Dx-5 (doxorubicin-resistant cell line); experiment: Intracellular uptake, flow cytometry (FACS); type: cell-based, human; conditions: MES-SA/Dx-5, 1.0 μg/ml
# Method: (§1) The flow cytometry study was performed with the FACStarPlus (Becton Dickinson) according to the method of Walker et al. (Experimental Cell Research 207: 142 (1993)). Briefly, cells (1.0×10^6) were incubated in McCoy's 5A medium (Invitrogen Corp.) supplemented with 10% fetal bovine serum and 1% penicillin streptomycin. After a 24-hour incubation period, the cells were treated with the drug composition at a dose of 1.0 μg/ml.
# [2] = system: MES-SA (doxorubicin-sensitive cell line); experiment: Intracellular uptake, flow cytometry (FACS); type: cell-based, human; conditions: 1.0 μg/ml
# Method: as §1
# [3] = system: MES-SA/Dx-5 (doxorubicin-resistant cell line); experiment: In vitro cytotoxicity, MTT assay; type: cell-based
# Method: (§2) MTT assay is well established method for cytotoxicity test. When the cells are treated with MTT (methylthiazoletetrazolium), the MTT-formazan is produced from reduction of MTT-tetrazolium by enzymes present in living cells only (dead cells cannot reduce the MTT-tetrazolium to MTT-formazan). The fluorescence of the MTT-formazan is detected by a fluorescence reader and the optical density correlates with the number of cells.
# (§3) The cytotoxic activity of each composition was evaluated in both human tumor cell lines at five ten-fold dilutions ranging from 0.01 to 100 μg/ml. […] The MTT-formazan produced from reduction of MTT-tetrazolium by enzymes present in the living cells was detected by a fluorescence reader. The optical density correlates with the number of cells. […] The MTT assay was performed essentially according to the method of Carmichael et al. (Cancer Research 47: 936 (1987)). Briefly, cells were harvested from an exponential phase culture growing in McCoy's 5A medium (Invitrogen Corp.) supplemented with 10% fetal bovine serum and 1% penicillin streptomycin, counted and plated in 96 well flat-bottomed microtiter plates (100 cell suspension, 5×10^4 cells/ml for each cell line). After a 24 h recovery to allow the cells to resume exponential growth, a culture medium (24 control wells per plate) or culture medium containing drug was added to the wells. Each drug concentration was plated in triplicate. […] Fluorescence was measured using an automatic microplate reader (SpectraMax 190, Molecular Devices) at a wavelength of 549 nm, and the number of viable cells was calculated from the optical density.
# [4] = system: MES-SA (doxorubicin-sensitive cell line); experiment: In vitro cytotoxicity, MTT assay; type: cell-based
# Method: as §2, §3
# [5] = rat, in vivo, iv, 5 mg/kg
# Method: The rats (5 rats for each formulation) were injected intravenously through the tail vein at a dose of 5 mg/kg. The blood samples were collected from the tail vein at 1, 5, 15, 30 minutes and 1, 2, 4, 8, and 24 hours after the drug injection. The blood samples were immediately centrifuged, and the plasma was separated. The plasma samples were stored at −50° C. until analysis. Doxorubicin was analyzed by HPLC assay described in example 1.
compound,measurement,setting,value
"COc1cccc2c1C(=O)c1c(O)c3c(c(O)c1C2=O)C[C@@](O)(C(=O)CO)C[C@@H]3O[C@H]1C[C@H](N)[C@H](O)[C@H](C)O1.Cl [Free-Dox, doxorubicin hydrochloride]",Change of (Δ) Fluorescence Intensity,[1]; time 0 hr,0.0
same,Number of cells(%) which absorbed the drug,[1]; time 0 hr,1.0%
same,Change of (Δ) Fluorescence Intensity,[1]; time 1 hr,2.6
same,Number of cells(%) which absorbed the drug,[1]; time 1 hr,1.8%
same,Change of (Δ) Fluorescence Intensity,[1]; time 4 hr,7.1
same,Number of cells(%) which absorbed the drug,[1]; time 4 hr,3.2%
same,Change of (Δ) Fluorescence Intensity,[1]; time 8 hr,9.2
same,Number of cells(%) which absorbed the drug,[1]; time 8 hr,5.3%
same,Change of (Δ) Fluorescence Intensity,[2]; time 0 hr,0.0
same,Number of cells(%) which absorbed the drug,[2]; time 0 hr,1.0%
same,Change of (Δ) Fluorescence Intensity,[2]; time 1 hr,7.6
same,Number of cells(%) which absorbed the drug,[2]; time 1 hr,4.0%
same,Change of (Δ) Fluorescence Intensity,[2]; time 4 hr,20.6
same,Number of cells(%) which absorbed the drug,[2]; time 4 hr,11.3%
same,Change of (Δ) Fluorescence Intensity,[2]; time 8 hr,40.6
same,Number of cells(%) which absorbed the drug,[2]; time 8 hr,35.1%
same,MTT Assay IC50,"[3]; MES-SA/Dx-5, time 24 hr",54.0 µg/mL
same,MTT Assay IC50,"[3]; MES-SA/Dx-5, time 48 hr",0.92 µg/mL
same,MTT Assay IC50,"[3]; MES-SA/Dx-5, time 72 hr",0.75 µg/mL
same,MTT Assay IC50,[4]; time 24 hr,0.30 µg/mL
same,MTT Assay IC50,[4]; time 48 hr,0.087 µg/mL
same,MTT Assay IC50,[4]; time 72 hr,0.031 µg/mL
same,AUC,[5],1300 ng·h/mL
